Some test systems named below: RXF 393 renal; M14 melanoma; SK-MEL-28 melanoma; OVCAR-4 ovarian; UO-31 renal; K-562 leukemia; DU-145 prostate; SK-MEL-5 melanoma; OVCAR-8 ovarian; RPMI-8226 leukemia.
Common to all, as to assay: inhibition of tumour cell growth, NCI panel, 48 h

Molecules are shown by their SMILES.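 Interpolation was linear, between the two tested concentrations surrounding the appropriate level; five concentrations were tested over 48 hours in 96-well plates. GI50 is the concentration that inhibits growth by half. TGI is the concentration that stops growth completely.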

`COc1cc2c(/C=C3/C(=O)Nc4cccc(Cl)c43)c(Cl)n(Cc3ccccc3)c2cc1C`: the GI50 in the test with RXF 393 renal is 5.05 µM; with M14 melanoma, 4.79 µM; with SK-MEL-28 melanoma, 4.98 µM; with OVCAR-4 ovarian, 7.73 µM; with UO-31 renal, 5.69 µM; with K-562 leukemia, 5.22 µM. The GI50 in the test with DU-145 prostate was 11.2 µM; in the test on SK-MEL-5 melanoma, 2.17 µM; in the test with OVCAR-8 ovarian it was 5.21 µM; in the test on RPMI-8226 leukemia it was 4.21 µM. Besides, the TGI with RXF 393 renal is > 29 µM; in the test on M14 melanoma it was > 40.5 µM; with SK-MEL-28 melanoma, 43.7 µM; with OVCAR-4 ovarian, > 100 µM; with UO-31 renal it was > 100 µM; in the test with K-562 leukemia, > 100 µM. For the same molecule, the TGI with DU-145 prostate was > 100 µM; in the test with SK-MEL-5 melanoma, 11.5 µM; in the test on OVCAR-8 ovarian, > 71.9 µM; with RPMI-8226 leukemia, > 23.6 µM.

`CCCCNC(=O)NS(=O)(=O)c1ccc(N2N=C(c3ccc(C)cc3C)CC2c2ccc(N(C)C)cc2)cc1` (centres undefined): the GI50 in the test with RXF 393 renal is 4.06 µM; in the test with M14 melanoma, 4.06 µM; in the test on SK-MEL-28 melanoma, 2.56 µM; in the test on OVCAR-4 ovarian, 5.41 µM; in the test on UO-31 renal, 4.57 µM; in the test with K-562 leukemia, 3.58 µM. In addition, the GI50 in the test with DU-145 prostate is 5.75 µM; in the test with SK-MEL-5 melanoma, 2.22 µM; in the test with OVCAR-8 ovarian, 3.68 µM; with RPMI-8226 leukemia it was 2.99 µM. In addition, the TGI in the test with RXF 393 renal is 15.7 µM; in the test on M14 melanoma, > 100 µM; in the test on SK-MEL-28 melanoma, 7.96 µM; with OVCAR-4 ovarian it was > 100 µM; in the test with UO-31 renal it was > 100 µM; with K-562 leukemia, > 100 µM. Also, the TGI in the test on DU-145 prostate was 81.1 µM; in the test with SK-MEL-5 melanoma it was 5.42 µM; in the test on OVCAR-8 ovarian, > 100 µM; in the test with RPMI-8226 leukemia, 9.66 µM.

`NC(N)=NC(N)=Nc1cc2ccccc2c2ccccc12`: the GI50 with RXF 393 renal was 10.6 µM; with M14 melanoma, 10.6 µM; in the test on SK-MEL-28 melanoma it was 13.2 µM; with OVCAR-4 ovarian it was 10.1 µM; with UO-31 renal, 5.05 µM; with K-562 leukemia, 4.34 µM. Moreover, the GI50 was 11.9 µM in the test with DU-145 prostate, 10.4 µM in the test with SK-MEL-5 melanoma, 5.15 µM in the test on OVCAR-8 ovarian and 4.49 µM with RPMI-8226 leukemia. Also, the TGI stood at 24.1 µM in the test on RXF 393 renal; 24.7 µM in the test on M14 melanoma; 26.2 µM in the test on SK-MEL-28 melanoma; 25.9 µM with OVCAR-4 ovarian; 19.9 µM with UO-31 renal; 21.9 µM in the test with K-562 leukemia. The TGI in the test with DU-145 prostate turned out to be 25 µM; in the test on SK-MEL-5 melanoma, 22.8 µM; in the test with OVCAR-8 ovarian it was 20.6 µM; in the test on RPMI-8226 leukemia, 26 µM.

`CCOC(=O)c1c(C)n(Cc2ccc(OC)cc2)c2c1cc(O)c1[nH]c3c(c12)CCCC3`: the GI50 was 11.6 µM with RXF 393 renal; 11.8 µM in the test on M14 melanoma; 10.7 µM in the test with SK-MEL-28 melanoma; 15.6 µM in the test with OVCAR-4 ovarian; 1.84 µM in the test with UO-31 renal; 5.22 µM in the test with K-562 leukemia. The GI50 in the test with DU-145 prostate was 27.5 µM; in the test on SK-MEL-5 melanoma it was 1.74 µM; in the test with OVCAR-8 ovarian, 3.05 µM; in the test with RPMI-8226 leukemia, 3.78 µM. The TGI is 43.5 µM in the test with RXF 393 renal; 34.2 µM in the test on M14 melanoma; > 100 µM with SK-MEL-28 melanoma; 88.6 µM in the test with OVCAR-4 ovarian; 4.05 µM in the test with UO-31 renal; > 100 µM in the test on K-562 leukemia. Further, the TGI in the test with DU-145 prostate was > 100 µM; with SK-MEL-5 melanoma, 3.24 µM; in the test on OVCAR-8 ovarian, 10.9 µM; in the test on RPMI-8226 leukemia, 58 µM.

For `CC(C)CSc1nc(Nc2ccccc2)c(C#N)c(-c2ccc(F)cc2)n1`, the GI50 was 1.75 µM in the test on RXF 393 renal; 6 µM with M14 melanoma; 12.2 µM in the test on SK-MEL-28 melanoma; 0.335 µM in the test on OVCAR-4 ovarian; 2.04 µM with UO-31 renal; 5.31 µM in the test on K-562 leukemia. For the same molecule, the GI50 was 11 µM in the test on DU-145 prostate, 24.7 µM with SK-MEL-5 melanoma, 3.27 µM in the test with OVCAR-8 ovarian and 5.49 µM with RPMI-8226 leukemia. The TGI is 6.18 µM with RXF 393 renal; 21 µM in the test with M14 melanoma; 35.5 µM in the test with SK-MEL-28 melanoma; 1.16 µM in the test with OVCAR-4 ovarian; 22.1 µM in the test with UO-31 renal; > 100 µM in the test with K-562 leukemia. Moreover, the TGI is 27.7 µM in the test on DU-145 prostate, 82.4 µM in the test with SK-MEL-5 melanoma, 16.1 µM with OVCAR-8 ovarian and > 100 µM in the test on RPMI-8226 leukemia.

In the case of `COc1ccc(OC)c(/C=C/NC=O)c1`, the TGI with RXF 393 renal, in the test on M14 melanoma, in the test with SK-MEL-28 melanoma, with OVCAR-4 ovarian, in the test on UO-31 renal and in the test on K-562 leukemia was > 100 µM in each case. In addition, the TGI in the test on DU-145 prostate, in the test on SK-MEL-5 melanoma, in the test on OVCAR-8 ovarian and in the test with RPMI-8226 leukemia was > 100 µM each time.

Take `CN(C)C(=S)SN(C)C(=O)Nc1ccccc1`: the TGI was 6.31 µM in the test on RXF 393 renal; 47.9 µM in the test with M14 melanoma; 53.6 µM with SK-MEL-28 melanoma; 53.5 µM with OVCAR-4 ovarian; > 94.7 µM in the test with UO-31 renal; > 100 µM in the test on K-562 leukemia. In addition, the TGI was > 100 µM in the test on DU-145 prostate, 46.4 µM with SK-MEL-5 melanoma, > 93.7 µM in the test with OVCAR-8 ovarian and > 100 µM in the test on RPMI-8226 leukemia.

As to `Cn1cc(-c2csc(-c3cccc(F)c3)n2)c2cccnc21`, the GI50 was 16 µM in the test with RXF 393 renal; 15.3 µM in the test with M14 melanoma; 17.6 µM in the test with SK-MEL-28 melanoma; 27.6 µM in the test on OVCAR-4 ovarian; 15.9 µM with UO-31 renal; 23.3 µM with K-562 leukemia. In addition, the GI50 with DU-145 prostate was 18.2 µM; in the test with SK-MEL-5 melanoma it was 15.7 µM; in the test with OVCAR-8 ovarian, 26.5 µM; in the test with RPMI-8226 leukemia it was 25.2 µM. Moreover, the TGI in the test on RXF 393 renal is 34.4 µM; in the test with M14 melanoma, 29.5 µM; with SK-MEL-28 melanoma, 32.8 µM; in the test with OVCAR-4 ovarian, 78.6 µM; in the test with UO-31 renal, 50.6 µM; in the test with K-562 leukemia, 87.1 µM. Also, the TGI is 32.1 µM in the test with DU-145 prostate, 30.4 µM in the test on SK-MEL-5 melanoma, 64.3 µM with OVCAR-8 ovarian and > 100 µM in the test on RPMI-8226 leukemia.

For the molecule `COc1ccc(-c2cc3c(nn2)-c2ccccc2C3=O)cc1`, the GI50 in the test on RXF 393 renal, in the test with M14 melanoma, with SK-MEL-28 melanoma, in the test with OVCAR-4 ovarian, with UO-31 renal and with K-562 leukemia was > 100 µM each time. Also, the GI50 in the test on DU-145 prostate, in the test on SK-MEL-5 melanoma, with OVCAR-8 ovarian and in the test on RPMI-8226 leukemia was > 100 µM throughout. Also, the TGI with RXF 393 renal, in the test on M14 melanoma, in the test on SK-MEL-28 melanoma, in the test on OVCAR-4 ovarian, with UO-31 renal and with K-562 leukemia was > 100 µM throughout. Also, the TGI in the test on DU-145 prostate, in the test on SK-MEL-5 melanoma, with OVCAR-8 ovarian and in the test with RPMI-8226 leukemia was > 100 µM throughout.

On to `COc1ccc(S(=O)(=O)N(Cc2ccc3c(n2)C=CC(C)(C)O3)C2CCC2)cc1OC`, for which the GI50 in the test on RXF 393 renal, in the test with M14 melanoma, with SK-MEL-28 melanoma, in the test on OVCAR-4 ovarian, with UO-31 renal and in the test on K-562 leukemia was < 0.01 µM in each case. Besides, the GI50 is < 0.01 µM with DU-145 prostate, < 0.01 µM with SK-MEL-5 melanoma, < 0.01 µM with OVCAR-8 ovarian and 0.0331 µM in the test with RPMI-8226 leukemia. Further, the TGI in the test on RXF 393 renal was 0.222 µM; in the test on M14 melanoma, 0.228 µM; with SK-MEL-28 melanoma it was 0.461 µM; with OVCAR-4 ovarian, 0.266 µM; in the test with UO-31 renal it was 0.871 µM; in the test on K-562 leukemia it was > 100 µM. Further, the TGI amounted to 3.45 µM with DU-145 prostate, 0.0376 µM in the test on SK-MEL-5 melanoma and 0.163 µM in the test with RPMI-8226 leukemia.

With `CC(C)CC(N)C(=O)O` (centres undefined), the TGI with RXF 393 renal, with M14 melanoma, in the test with SK-MEL-28 melanoma, in the test on OVCAR-4 ovarian, with UO-31 renal and in the test with K-562 leukemia was > 100 µM throughout. Also, the TGI in the test with DU-145 prostate, in the test on SK-MEL-5 melanoma, in the test with OVCAR-8 ovarian and with RPMI-8226 leukemia was > 100 µM each time.

For the molecule `N#C/C(C(=S)Nc1ccccc1)=C1/NN=C2c3ccccc3C(=O)NN21`, the GI50 was 0.512 µM in the test on RXF 393 renal; 19.3 µM in the test on M14 melanoma; 25.3 µM with SK-MEL-28 melanoma; 26.2 µM in the test with OVCAR-4 ovarian; 33.4 µM in the test on UO-31 renal; 22.1 µM in the test on K-562 leukemia. Moreover, the GI50 was 28.8 µM in the test with DU-145 prostate, 17 µM in the test on SK-MEL-5 melanoma, 32 µM in the test on OVCAR-8 ovarian and 32.3 µM in the test with RPMI-8226 leukemia. Moreover, the TGI with RXF 393 renal is 22.9 µM; with M14 melanoma it was 40.6 µM; in the test on SK-MEL-28 melanoma it was 97.7 µM; with OVCAR-4 ovarian, 91.2 µM; in the test with UO-31 renal, > 100 µM; in the test on K-562 leukemia, > 100 µM. The TGI in the test with DU-145 prostate was > 100 µM; in the test with SK-MEL-5 melanoma it was 41.1 µM; in the test on OVCAR-8 ovarian it was > 100 µM; in the test with RPMI-8226 leukemia, > 100 µM.

Regarding `O=C(O)c1cc(N=Nc2ccc([As](=O)(O)O)cc2)ccc1O`, the TGI with RXF 393 renal, with M14 melanoma, in the test on SK-MEL-28 melanoma, with OVCAR-4 ovarian, with UO-31 renal and in the test on K-562 leukemia was > 100 µM throughout. For the same molecule, the TGI in the test with DU-145 prostate, in the test on SK-MEL-5 melanoma, in the test on OVCAR-8 ovarian and with RPMI-8226 leukemia was > 100 µM throughout.
